Assay results as given in US11001573B2, “Citric acid derivative” (ADABIO CO., LTD., priority 2015, dated 2021).

Test system: Wistar male rats given galactosamine hydrochloride
Assay: Test on liver dysfunction suppression effect (galactosamine hydrochloride-induced liver disorder, plasma AST/ALT)
Assay type: in vivo, rat
Settings: oral 7 days, 6 g/kg of 6 mg/mL solution, galactosamine hydrochloride 750 mg/kg i.p. on day 7, blood on day 9, vs control administration group (p<0.05, Dunnett)
Method: (Preparation of Administration Products for Animal Test)
(1) Preparation of Compound I Administration Product
An 8 N sodium hydroxide aqueous solution was added dropwise to 100 mL of roughly purified solution I in small amounts, while checking the pH with a pH meter, to adjust the acid-base property of the solution to pH 6.5. Further, the mixture was diluted with a solvent.
(2) Preparation of Compound V Administration Product
An 8 N sodium hydroxide aqueous solution was added dropwise to 100 mL of roughly purified solution I in small amounts, while checking the pH with a pH meter, to adjust the acid-base property of the solution to pH 8.6, followed by heating at 121° C. for 30 minutes, and further the mixture was diluted with a solvent (the pH of the solution after the heating changed to about pH 6.2 due to acid formation by hydrolysis reaction).
(Test on Liver Dysfunction Suppression Effect)
The aforementioned administration products (1) and (2) were dissolved in a solvent composed of oligosaccharide, cyclic oligosaccharide, and D-sorbitol to give a solution, and the final concentration of compounds I and V dissolved in the solution administered was adjusted to 6 mg/mL. The solution in an amount of 6 g/kg as calculated from specific gravity of the solution was orally administered to 8 week-old Wistar male rats (CHARLES RIVER LABORATORIES JAPAN, INC.) for 7 days with free access to commercially available solid feed and tap water. The solvent free from the aforementioned compounds (1) and (2) in an amount of 6 g/kg was orally administered to the control animals for 7 days. On the 7th day after the start of administration, a 750 mg/kg dose of galactosamine hydrochloride (Wako Pure Chemical Industries, Ltd.) was intraperitoneally administered to each of the animals to which the control and compounds I and V were administered, and the abdomen was opened on the 9th day after the start of administration under pentobarbital anesthesia (50 mg/kg), to collect heparinized blood from the abdominal aorta. The obtained blood was separated into blood plasma, and the AST and ALT values thereof were measured by the JSCC standardization-corresponding method. In FIG. 14, the results are shown as average+standard deviation (the number of animals of each group was 20). Symbol * represents a significant difference (p<0.05) from the control group, which was tested by the Dunnett's test after the one-way analysis of variance.

Row | Structure (SMILES) | ALT value in blood plasma | AST value in blood plasma
1 | O=C(O)CC(C(=O)O)N1C(=O)CC(O)(CC(=O)O)C1=O (stereo not shown) [compound I] | significantly low | significantly low
2 | O=C(O)CC(NC(=O)CC(O)(CC(=O)O)C(=O)O)C(=O)O (stereo not shown) [compound V] | significantly low | significantly low
